What all share (assay type): biochemical
One experiment concerns the target vcASADH (Vibrio cholerae, UniProt Q9KQG2). The experiment is described as follows: ASADH kinetic assay.
The target of experiment [1] is T1, spASADH (Streptococcus pneumoniae, UniProt Q8DQ00).
T1 sequence (Q8DQ00 1-358): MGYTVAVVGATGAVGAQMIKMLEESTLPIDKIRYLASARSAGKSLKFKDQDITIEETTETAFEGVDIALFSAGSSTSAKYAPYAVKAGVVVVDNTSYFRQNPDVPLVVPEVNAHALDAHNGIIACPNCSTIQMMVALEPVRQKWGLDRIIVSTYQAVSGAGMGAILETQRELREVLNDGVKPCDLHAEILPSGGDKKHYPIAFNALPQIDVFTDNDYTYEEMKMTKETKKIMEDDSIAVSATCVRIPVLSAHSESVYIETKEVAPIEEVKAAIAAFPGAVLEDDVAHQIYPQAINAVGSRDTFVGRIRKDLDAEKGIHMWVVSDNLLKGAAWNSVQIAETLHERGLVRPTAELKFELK

Experiment [2] has as its system spASADH. Conditions: ratio of Ki vcASADH / spASADH.

Structures are written as SMILES.

vcASADH, sequence (Q9KQG2 whole entry): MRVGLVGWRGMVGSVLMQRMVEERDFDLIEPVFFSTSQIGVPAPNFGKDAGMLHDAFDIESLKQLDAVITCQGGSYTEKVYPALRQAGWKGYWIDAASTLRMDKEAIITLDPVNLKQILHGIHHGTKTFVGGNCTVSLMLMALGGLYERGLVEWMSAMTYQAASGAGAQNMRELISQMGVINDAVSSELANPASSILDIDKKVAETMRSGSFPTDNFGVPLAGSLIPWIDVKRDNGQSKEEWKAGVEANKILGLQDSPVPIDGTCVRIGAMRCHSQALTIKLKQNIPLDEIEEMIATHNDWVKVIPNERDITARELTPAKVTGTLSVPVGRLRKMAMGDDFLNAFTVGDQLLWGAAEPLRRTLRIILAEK

On to `O=C([O-])CCNCc1ccc(C(=O)[O-])c(C(=O)[O-])c1.[Na+].[Na+].[Na+]` [compound 4, N-carboxyethyl-3,4-dicarboxybenzylamine], for which the “inhibition of vcASADH (in words)” value against vcASADH is listed as “did not show appreciable inhibition”.
For the compound `CN(CC(=O)[O-])Cc1cccc(C(=O)[O-])c1C(=O)[O-].[Na+].[Na+].[Na+]` [compound 9, N-methyl, N-carboxymethyl-2,3-dicarboxybenzylamine], the “inhibition of vcASADH (in words)” value against vcASADH is on record as “no inhibition”.
Regarding `O=C([O-])CN(Cc1ccc(C(=O)[O-])c(C(=O)[O-])c1)c1ccc(-c2ccccc2)cc1.[Na+].[Na+].[Na+]` [compound 17, N-(4-biphenyl)-N-carboxymethyl-3,4-dicarboxybenzylamine], the “improved inhibition of spASADH relative to the parent benzyl derivative” value on spASADH [1] (relative to parent benzyl derivative (13)) is recorded as 25 fold.
On spASADH [1] (carboxamide (32) relative to p-carboxylbenzyl derivative (31)), `NC(=O)c1ccc(CN(CC(=O)[O-])Cc2ccc(C(=O)[O-])c(C(=O)[O-])c2)cc1.[Na+].[Na+].[Na+]` [compound 32, N-(4-carboxamidebenzyl)-N-carboxymethyl-3,4-dicarboxybenzylamine] yielded a loss of affinity of 3 fold.
On to `CC(C)(C)c1ccc(CN(CC(=O)[O-])Cc2ccc(C(=O)[O-])c(C(=O)[O-])c2)cc1.[Na+].[Na+].[Na+]` [compound 33, N-(4-t-butylbenzyl)-N-carboxymethyl-3,4-dicarboxybenzylamine], for which the “selectivity for spASADH relative to vcASADH” value with spASADH [2] is “over 40 fold”.
